Data reported in paper PMC11676886 (Pharmaceutics, 2024).
≈ marks a conversion by molar mass, not a printed value.

What was measured:
[1] = parameters: method as in doi:10.1016/j.jddst.2024.105605; conditions: 4% (w/v) polysorbate 20; cited from earlier work
physchem = assay type: physicochemical
Method: The mobile phase consisted of 50% acetonitrile and 50% purified water with a flow rate set to 1 mL/min and a column temperature set to 30 °C. The injection volume was 20 µL analyzed at a wavelength set to 230 nm for all analytical measurements.
Samples were prepared by the shake-flask method in glass vials containing 2 mg drug compound and 1 mL dispersion medium consisting of either buffer solutions (50 mM acetate buffer, pH 4.0 or 50 mM citric buffer, pH 3.0) or stabilizer solutions containing 1%, 2%, or 3% polysorbate 20 or vitamin E TPGS dissolved in the buffer solutions. The samples were rotated for 24 h at 40 rpm on a Multi-Rotator (PTR-60, Grant-Bio, Grant Instruments, Cambridgeshire, UK) while stored at 40 °C and protected from light. Samples were prepared in triplicate (n = 3). After equilibration, the samples were filtered with a 0.22 µm hydrophobic polytetrafluoroethylene membrane (VWR International, LLC, Radnor, PA, USA) with sampling tools equilibrated to 40 °C while the clear supernatant was diluted to an appropriate concentration with the mobile phase (50:50 acetonitrile and purified water) and analyzed by the method described above.

solubility at 24 h (physchem; 40 °C, pH 3, aqueous buffer, thermodynamic from solid): 2 µg/mL (≈ 5.59 µM)
solubility at 24 h (physchem; 40 °C, pH 4, aqueous buffer, thermodynamic from solid): 3 µg/mL (≈ 8.38 µM)
solubility at 24 h (physchem; pH 4): 640 µg/mL (≈ 1790 µM)
Compound: COc1ccc2c(c1)c(CC(=O)O)c(C)n2C(=O)c1ccc(Cl)cc1 [indomethacin]
solubility [1]: approximately 0.70 mg/mL
